Consider 13 substances from patent publication US20060057156A1, “Materials and methods for inductions of immune tolerance” (priority 2002, published 2006).

Where two headings read alike, the source gives them in different places.

Experiment [1] relates to PBMC from EBV seropositive donors. As to the kind of experiment: Suppression of proliferative and cytokine responses to mitogen, antigens and allergens. Type of experiment: cell-based, human. Conditions: three EBV seropositive donors, FIG. 6.
Experiment [2] has the same test system. In kind it is cell-based, human. Conditions: for IL-10 secretion by PBMC: EBV seropositive donors, peptides at 15 μg/ml, ELISA five days after stimulation; for gamma-IFN induction: control peptides of FIG. 6, seropositive donors. For orientation: An ELISA detects its analyte on a solid surface through an enzyme-linked reagent.

On to FLGIVLFIFGCLLVLGIWIY [P22], for which the “effect on proliferative and gamma-IFN responses against recall antigen (PPD)” value (“effect” for short) in experiment [1] is recorded as “inhibit proliferative responses”. Moreover, the “IL-10 secretion by PBMC” value in experiment [2] was “IL-10 inducing”.
As to HDPLPQDPDNTDDNGPQDPD [P56], the gamma-IFN induction entry in experiment [2] is “gamma-IFN inducing”.
For ILIIFIFRRDLLCPLGALCI [P14], the “IL-10 secretion by PBMC” value in experiment [2] was “shown to induce IL-10”.
Take LFIFGCLLVLGIWIYLLEML [P23]: the “effect” value in experiment [1] was “inhibit proliferative responses”. Also, the “IL-10 secretion by PBMC” value in experiment [2] is on record as “IL-10 inducing”.
On to LILLIIALYLQQNWWTLLVD [P31], for which, in experiment [1], the “effect” value is on record as “inhibit proliferative responses”. In addition, in experiment [2], the “IL-10 secretion by PBMC” value is reported as “IL-10 inducing”.
Regarding LLFWLYIVMSDWTGGALLVL [P8], the “IL-10 secretion by PBMC” value in experiment [2] is listed as “shown to induce IL-10”.
In the case of LLLLALLFWLYIVMSDWTGG [P7], the “effect” value in experiment [1] was “inhibit proliferative responses”. For the same substance, the “IL-10 secretion by PBMC” value in experiment [2] is on record as “IL-10 inducing”; in experiment [2] (listed as peptide 7) it was “one of many effective Tr1 IL-10 inducers”.
As for LLLMITLLLIALWNLHGQAL [P18], the “effect” value in experiment [1] was “inhibit proliferative responses”. The “IL-10 secretion by PBMC” value in experiment [2] is listed as “IL-10 inducing”.
For LLWLLLFLAILIWMYYHGQR [P35] the same measures were “inhibit proliferative responses” and “IL-10 inducing”.
Consider PRGPPLSSSLGLALLLLLLA [P4], for which the “effect” value in experiment [1] is recorded as “inhibit proliferative responses”. Moreover, in experiment [2] (20 seropositive donors, peptide 15 μg/ml), the “percentage of EBV seropositive donors whose PBMC responded with IL-10” value is reported as 80%. In experiment [2], the “IL-10 secretion by PBMC” value is listed as “IL-10 inducing”.
Take QQNWWTLLVDLLWLLLFLAI [P33]: in experiment [2], the gamma-IFN induction result is reported as “gamma-IFN inducing”.
With TIWQLLAFFLAFFLDLILLY [P28], the gamma-IFN induction result in experiment [2] is listed as “gamma-IFN inducing”.
Take “concanavalin A [Con A, reference compound]”: the “response pattern to control mitogen / recall antigen” value in experiment [2] (regardless of EBV serological status) was “induced responses dominated by proliferation and γ-IFN production”.
